Test results published in PubChem BioAssay AID1963864 (Molecular Pharmacology Branch, DTP, NCI, 2024).
Where “and” joins values, the source holds several entries; their conditions need not be identical. Equal values may be shown once.

Test system: KRAS PDC multicell spheroid viability
Assay: Anticancer human tumor 521955-158-R6-J3-PDC patient-derived pancreatic carcinoma cell line growth inhibition [KRAS2]
Settings: for viability, T/C: stronger effect = lower value
Outline: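 Combination screen of spheroid viability in tumor-cell co-cultures with endothelial (HUVEC) and mesenchymal stem cell stroma. Each agent was tested in half-log dilutions, topping at clinical Cmax or at 10 microM without a known Cmax.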

[1] = curve of first compound, second compound 0.0316 µM
[2] = curve of first compound, second compound 0.1 µM
[3] = curve of first compound, second compound 0.316 µM
[4] = curve of first compound, second compound 1 µM
[5] = curve of first compound, second compound 3.16 µM
[6] = second compound 0.0316 µM, first compound 0.0316 µM
[7] = second compound 0.1 µM, first compound 0.0316 µM
[8] = second compound 0.316 µM, first compound 0.0316 µM
[9] = second compound 1 µM, first compound 0.0316 µM
[10] = second compound 3.16 µM, first compound 0.0316 µM
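Note: drug exposure lasted seven days.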
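Throughout, for viability, T/C: 100% = DMSO vehicle wells and lower means fewer viable cells.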

`CC(=O)Nc1cccc(-n2c(=O)n(C3CC3)c(=O)c3c(Nc4ccc(I)cc4F)n(C)c(=O)c(C)c32)c1` + C=CC(=O)N1CCN(c2nc(OCC3CCCN3C)nc3c2CCN(c2cccc4cccc(C)c24)C3)CC1CC#N showed an IC50 [1] greater than 0.0316 µM, an IC50 [2] of 0.0284 µM and an IC50 [3] of 0.0212 µM. The IC50 [4] was 0.00967 µM, the IC50 [5] was less than 0.0001 µM and the viability, T/C (second compound 0.0316 µM, first compound 0.0001 µM) was 109%. It also gave a viability, T/C (second compound 0.0316 µM, first compound 0.000316 µM) of 109%, a viability, T/C (second compound 0.0316 µM, first compound 0.001 µM) of 108% and a viability, T/C (second compound 0.0316 µM, first compound 0.00316 µM) of 83.2%. The viability, T/C (second compound 0.0316 µM, first compound 0.01 µM) was 83.9%, the viability, T/C [6] was 52.8% and the viability, T/C (second compound 0.1 µM, first compound 0.0001 µM) was 93.1%. For the same compound, the viability, T/C (second compound 0.1 µM, first compound 0.000316 µM) was 111%, the viability, T/C (second compound 0.1 µM, first compound 0.001 µM) was 100% and the viability, T/C (second compound 0.1 µM, first compound 0.00316 µM) was 81.4%. The viability, T/C (second compound 0.1 µM, first compound 0.01 µM) was 76.8%, the viability, T/C [7] was 46.8% and the viability, T/C (second compound 0.316 µM, first compound 0.0001 µM) was 89.4%. The viability, T/C (second compound 0.316 µM, first compound 0.000316 µM) was 96%, the viability, T/C (second compound 0.316 µM, first compound 0.001 µM) was 101% and the viability, T/C (second compound 0.316 µM, first compound 0.00316 µM) was 83.9%. The viability, T/C (second compound 0.316 µM, first compound 0.01 µM) was 66.8%, the viability, T/C [8] was 41.2% and the viability, T/C (second compound 1 µM, first compound 0.0001 µM) was 72.4%. The viability, T/C (second compound 1 µM, first compound 0.000316 µM) was 72.4%, the viability, T/C (second compound 1 µM, first compound 0.001 µM) was 87.1% and the viability, T/C (second compound 1 µM, first compound 0.00316 µM) was 65.4%. For the same compound, the viability, T/C (second compound 1 µM, first compound 0.01 µM) was 50.9%, the viability, T/C [9] was 38% and the viability, T/C (second compound 3.16 µM, first compound 0.0001 µM) was 40.3%. The viability, T/C (second compound 3.16 µM, first compound 0.000316 µM) was 52.7%, the viability, T/C (second compound 3.16 µM, first compound 0.001 µM) was 24.4% and the viability, T/C (second compound 3.16 µM, first compound 0.00316 µM) was 29.1%. It also gave a viability, T/C (second compound 3.16 µM, first compound 0.01 µM) of 2.14% and a viability, T/C [10] of 8.79%.
In the case of `Cn1nccc1Nc1nccc(-c2cc3c(s2)C(C)(C)N(CCN2CCOCC2)C3=O)n1`, the viability, T/C (compound 0.0316 µM) is reported as 109% and 83.6%, the viability, T/C (compound 0.1 µM) is reported as 112% and 98.5% and the viability, T/C (compound 0.316 µM) is reported as 123% and 98.7%. For the same compound, the viability, T/C (compound 1 µM) was 105% and 91.8%, the viability, T/C (compound 3.16 µM) was 85.4% and 76% and the viability, T/C (compound 10 µM) was 73.7% and 66.2%. For the same compound, the IC50 (curve of compound) was greater than 10 µM.
With `COc1cc2nccc(Oc3ccc(NC(=O)C4(C(=O)Nc5ccc(F)cc5)CC4)cc3)c2cc1OC` the viability, T/C (compound 0.316 µM) was 95.7% [middle of 5 runs] and the IC50 (curve of compound) was greater than 10 µM.
For `COc1cc2nccc(Oc3ccc(NC(=O)C4(C(=O)Nc5ccc(F)cc5)CC4)cc3)c2cc1OC` + C=CC(=O)N1CCN(c2nc(OCC3CCCN3C)nc3c2CCN(c2cccc4cccc(C)c24)C3)CC1CC#N, the IC50 [1] was greater than 10 µM, the IC50 [2] was greater than 10 µM and the IC50 [3] was greater than 10 µM. The IC50 [4] was greater than 10 µM, the IC50 [5] was less than 0.0316 µM and the viability, T/C [6] was 103%. The viability, T/C (second compound 0.0316 µM, first compound 0.1 µM) was 111%, the viability, T/C (second compound 0.0316 µM, first compound 0.316 µM) was 98.6% and the viability, T/C (second compound 0.0316 µM, first compound 1 µM) was 107%. It also gave a viability, T/C (second compound 0.0316 µM, first compound 3.16 µM) of 126%, a viability, T/C (second compound 0.0316 µM, first compound 10 µM) of 128% and a viability, T/C [7] of 106%. It also gave a viability, T/C (second compound 0.1 µM, first compound 0.1 µM) of 102%, a viability, T/C (second compound 0.1 µM, first compound 0.316 µM) of 117% and a viability, T/C (second compound 0.1 µM, first compound 1 µM) of 116%. The viability, T/C (second compound 0.1 µM, first compound 3.16 µM) was 143%, the viability, T/C (second compound 0.1 µM, first compound 10 µM) was 133% and the viability, T/C [8] was 103%. The viability, T/C (second compound 0.316 µM, first compound 0.1 µM) was 99.3%, the viability, T/C (second compound 0.316 µM, first compound 0.316 µM) was 96.5% and the viability, T/C (second compound 0.316 µM, first compound 1 µM) was 109%. The viability, T/C (second compound 0.316 µM, first compound 3.16 µM) was 138%, the viability, T/C (second compound 0.316 µM, first compound 10 µM) was 140% and the viability, T/C [9] was 81.1%. For the same compound, the viability, T/C (second compound 1 µM, first compound 0.1 µM) was 80.8%, the viability, T/C (second compound 1 µM, first compound 0.316 µM) was 83.3% and the viability, T/C (second compound 1 µM, first compound 1 µM) was 82.3%. It also gave a viability, T/C (second compound 1 µM, first compound 3.16 µM) of 123%, a viability, T/C (second compound 1 µM, first compound 10 µM) of 111% and a viability, T/C [10] of 43.3%. It also gave a viability, T/C (second compound 3.16 µM, first compound 0.1 µM) of 44%, a viability, T/C (second compound 3.16 µM, first compound 0.316 µM) of 33.7% and a viability, T/C (second compound 3.16 µM, first compound 1 µM) of 15.4%. For the same compound, the viability, T/C (second compound 3.16 µM, first compound 3.16 µM) was 1.6% and the viability, T/C (second compound 3.16 µM, first compound 10 µM) was 17.8%.
